Two compounds from US9814709B2, “Bruton's tyrosine kinase inhibitor” (HEFEI INSTITUTES OF PHYSICAL SCIENCE, CHINESE ACADEMY OF …, priority 2014, dated 2017) can be followed below.

For the assay, the system named is SD rat adjuvant arthritis (AA) model. In words: SD rat adjuvant arthritis (AA) model, arthritis index. Type of assay: in vivo. The method, then:
In this example, SD rat adjuvant arthritis (AA) model (purchased from the Experimental Animal Center of Anhui Province) was used. PCI-32765 and methotrexate (MTX) were used as positive control (both purchased from Shanghai Chemexpress). The therapeutic effect of Compound 1 on AA rats was studied via the combination of in vivo and in vitro administration. 10 mg/nal of complete Freund's adjuvant (CFA, purchased from Shanghai Chemexpress) was mixed well, and 0.1 ml of CFA was intracutaneously injected into each rat at right posterior plantar to induce inflammation. The normal group was injected with saline via the same method. On the 17th day, the successful modeling male SD rats were randomly divided into 7 groups with 10 rats in each group, namely the model group, the small/medium/large dose of Compound 1 group (12.5, 25, 50 mg/kg/per administration, intraperitoneal injection, one administration per day for 16 days), the Compound 19 group (25 mg/kg/per administration, intraperitoneal injection, one administration per day for 16 days), the positive control PCI-32765 group (25 mg/kg/per administration, intraperitoneal injection, one administration per day for 16 days), the MTX group (0.5 mg/kg, intragastrical, one administration every 3 days, totally 6 times). The rats in the model group were intraperitoneally injected with the same amount of DMSO solution.

Turning to `CN(Cc1cnc2nc(N)nc(N)c2n1)c1ccc(C(=O)N[C@@H](CCC(=O)O)C(=O)O)cc1` [MTX, methotrexate, reference compound], under “0.5 mg/kg intragastrical every 3 days, starting from day 21”, the “effect on arthritis index of rats compared with the model group” value is listed as “significantly reduced”.

For the compound `C=CC(=O)N1CCC[C@@H](n2nc(-c3ccc(Oc4ccccc4)cc3)c3c(N)ncnc32)C1` [PCI-32765, reference compound], under “25 mg/kg intraperitoneal once per day, starting from day 24”, the “effect on arthritis index of rats” value is “significantly reduce”.
